Laboratory results: patent US20250092065A1, “2-(INDAZOL-5-YL)-6-(PIPERIDIN-4-YL)-1,7-NAPHTHYRIDINE DERIVATIVES AND RELATED COMPOUNDS AS MODULATORS FOR SPLICING NUCLEIC ACIDS AND FOR THE TREATMENT OF PROLIFERATIVE DISEASES” (REMIX THERAPEUTICS INC., priority 2022, published 2025)
pIC50: −log10 of the molar value. Like-named read-outs stand apart in the source and are kept apart here.

Assays:
[1] = system: MYB mRNA; assay: RT-qPCR splicing assay, MYB mRNA canonical (CJ) and alternative (AJ) junction; format: cell-based, human; details: Homo sapiens
Method in brief: (§1)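 Canonical and alternative-exon junction isoforms were quantified by RT-qPCR in cell lysates, with ΔCt against a housekeeper (GAPDH/GUSB/PPIA), then ΔΔCt vs DMSO, converted to 2^(−ΔΔCt) and percent response. K562 or A673 cells were exposed for 24 h to 11 concentrations (3-fold, top final 10 uM).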

[2] = system: HTT mRNA; assay: RT-qPCR splicing assay, HTT mRNA canonical (CJ) and alternative (AJ) junction; format: cell-based, human; details: Homo sapiens
Method in brief: as §1

[3] = system: Target C; assay: RT-qPCR canonical junction panel assay, Target C mRNA; format: cell-based; details: Table 4, read-out: Target C IC50 (decrease in CJ mRNA levels)
Description: Compounds described herein were used to modulate RNA transcript abundance in cells. The expression of a target mRNA was measured by detecting the formation of an exon-exon junction in the canonical transcript (CJ). A compound mediated exon-inclusion event was detected by observing an increase in formation of a new junction with an alternative exon (AJ). Real-time qPCR assays were used to detect these splicing switches and interrogate the potency of various compounds towards different target genes. A high-throughput real time quantitative PCR (RT-qPCR) assay was developed to measure these two isoforms of the mRNA (CJ and AJ) for exemplary genes, such as HTT, SMN2, and MYB, together with a control housekeeping gene, GAPDH or GUSB or PPIA, used for normalization. Briefly, the A673 or K562 cell line was treated with various compounds described herein (e.g., compounds of Formula (I)). After treatment, the levels of the HTT, MYB, or SMN2 mRNA targets were determined from each sample of cell lysate by cDNA synthesis followed by qPCR.
The data analysis was performed by first determining the ΔCt vs the housekeeper gene. This ΔCt was then normalized against the DMSO control (ΔΔCt) and converted to RQ (relative quantification) using the 2^(−ΔΔCt) equation. The RQ were then converted to a percentage response by arbitrarily setting an assay window of 3.5 and 4.0 ΔCt for HTT-CJ and MYB-CJ respectively and an assay window of 9 and 3 ΔCt for HTT-AJ and MYB-AJ in 96 well format (50,000 K562 cells/well and 15,000 A673 cells per well) and an assay window of 3 and 4 ΔCt for HTT-CJ and MYB-CJ respectively and an assay window of 5 and 3 ΔCt for HTT-AJ and MYB-AJ respectively in 384 well format (8,000 K562 cells/well example). […] The percentage response was then fitted to the 4 parametric logistic equation to evaluate the concentration dependence of compound treatment. The increase in AJ mRNA is reported as AC50 (compound concentration having 50% response in AJ increase) while the decrease in CJ mRNA levels is reported as IC50 (compound concentration having […] in CJ decrease).
Additional studies were carried out for a larger panel of genes using the protocol provided above. The junction between flanking upstream and downstream exons was used to design canonical junction Qpcr assays. At least one of the forward primer, reverse primer or the CY5-labeled 5′ nuclease probe (with 3′ quencher such as ZEN/Iowa Black FQ) was designed to overlap with the exon junction to capture the CJ Mrna transcript. BLAST was used to confirm the specificity of the probeset and parameters suCH As melting temperature, GC content, amplicon size, and primer dimer formation are considered during their design. Data for the decrease in CJ Mrna levels for four exemplary genes (HTT, SMN2, MYB, and Target C) analyzed in this panel are reported as IC50 (compound concentration having […] in CJ decrease).

[4] = system: SMN2 mRNA; assay: RT-qPCR splicing assay, SMN2 mRNA; format: cell-based, human; details: Homo sapiens, canonical junction qPCR panel, Table 4; read-out: SMN2 IC50 (decrease in CJ mRNA levels)
Method in brief: as §1

[5] = system: K562 cells; assay: Cell Titer Glo 2.0 cell viability (toxicity) assay, K562; details: 500 cells/well, 72 hours
[6] = MYB alternative junction mRNA, RT-qPCR, read-out: MYB AJ (increase in AJ mRNA, AC50)
[7] = MYB canonical junction mRNA, RT-qPCR, read-out: MYB CJ (decrease in CJ mRNA levels, IC50)
[8] = canonical junction qPCR panel, Table 4, read-out: MYB IC50 (decrease in CJ mRNA levels)
[9] = HTT alternative junction mRNA, RT-qPCR, read-out: HTT AJ (increase in AJ mRNA, AC50)
[10] = HTT canonical junction mRNA, RT-qPCR, read-out: HTT CJ (decrease in CJ mRNA levels, IC50)
[11] = canonical junction qPCR panel, Table 4, read-out: HTT IC50 (decrease in CJ mRNA levels)
[12] = RT-qPCR, MYB alternative junction mRNA increase, read-out: MYB AJ (increase in alternative junction mRNA, AC50)
[13] = RT-qPCR, MYB canonical junction mRNA decrease, read-out: MYB CJ (decrease in canonical junction mRNA, IC50)
[14] = RT-qPCR, HTT alternative junction mRNA increase, read-out: HTT AJ (increase in alternative junction mRNA, AC50)
[15] = RT-qPCR, HTT canonical junction mRNA decrease, read-out: HTT CJ (decrease in canonical junction mRNA, IC50)

pIC50 [1, 7] | pIC50 [1, 8] | pIC50 [2, 10] | pIC50 [2, 11] | pIC50 [3] | pIC50 [4] | pIC50 [1, 13] | pIC50 [2, 15] | SMILES | AC50 [1, 6] | AC50 [2, 9] | AC50 [1, 12] | AC50 [2, 14] | Effect of Exemplary Compounds on Cell Viability, K562 [5]
– | 5.00 to 6.00 | – | 5.00 to 6.00 | 5.00 to 6.00 | 6.00 to 7.00 | 5.00 to 6.00 | 5.00 to 6.00 | CCc1nc2cc(O)c(-c3ccc4nc(N5CC[C@@H](NC(C)(C)C)C5)ccc4n3)cc2o1 (single isomer, unassigned) [Compound 808] | – | – | 1000 to 10000 nM | 1000 to 10000 nM | C (C represents 1000-9999 nM)
– | 5.00 to 6.00 | – | 5.00 to 6.00 | 5.00 to 6.00 | 5.00 to 6.00 | 5.00 to 6.00 | 5.00 to 6.00 | CCc1nc2cc(O)c(-c3ccc4nc(N5CC[C@H](NC(C)(C)C)C5)ccc4n3)cc2o1 (single isomer, unassigned) [Compound 809] | – | – | 1000 to 10000 nM | 1000 to 10000 nM | C (C represents 1000-9999 nM)
– | 6.00 to 7.00 | – | 5.00 to 6.00 | 5.00 to 6.00 | > 7.00 | 6.00 to 7.00 | 5.00 to 6.00 | Cc1c(O)c(-c2ncc3cc(N4C[C@H](C)NC5(CC5)C4)ccc3n2)cc2cn(C)nc12 (single isomer, unassigned) [Compound 810] | – | – | 100 to 1000 nM | 1000 to 10000 nM | B (B represents 100-1000 nM)
– | > 7.00 | – | 5.00 to 6.00 | < 5.00 | > 7.00 | > 7.00 | 5.00 to 6.00 | Cc1c(O)c(-c2ncc3cc(N4C[C@@H](C)NC5(CC5)C4)ccc3n2)cc2cn(C)nc12 (single isomer, unassigned) [Compound 811] | – | – | < 100 nM | 1000 to 10000 nM | B (B represents 100-1000 nM)
– | 6.00 to 7.00 | – | 5.00 to 6.00 | 5.00 to 6.00 | > 7.00 | 6.00 to 7.00 | 5.00 to 6.00 | C[C@H]1CN(c2ccc3nc(-c4cc5cn(C)nc5cc4O)ncc3c2)CC2(CC2)N1 (single isomer, unassigned) [Compound 812] | – | – | 100 to 1000 nM | 1000 to 10000 nM | B (B represents 100-1000 nM)
– | 6.00 to 7.00 | – | < 5.00 | < 5.00 | > 7.00 | 6.00 to 7.00 | < 5.00 | C[C@@H]1CN(c2ccc3nc(-c4cc5cn(C)nc5cc4O)ncc3c2)CC2(CC2)N1 (single isomer, unassigned) [Compound 813] | – | – | 100 to 1000 nM | > 10000 nM | B (B represents 100-1000 nM)

More lines, now with the values behind:

SMILES | pIC50 [1, 7] | pIC50 [1, 8] | pIC50 [2, 10] | pIC50 [2, 11] | pIC50 [3] | pIC50 [4] | pIC50 [1, 13] | pIC50 [2, 15] | AC50 [1, 6] | AC50 [2, 9] | AC50 [1, 12] | AC50 [2, 14] | Effect of Exemplary Compounds on Cell Viability, K562 [5]
Cc1nc2c(F)c(O)c(-c3ccc4nc(N5CC[C@@H](NC6(CF)CC6)C5)ccc4n3)cc2o1 (single isomer, unassigned) [Compound 372] | > 7.00 | > 7.00 | > 7.00 | > 7.00 | > 7.00 | > 7.00 | – | – | < 100 nM | < 100 nM | – | – | –
C[C@H]1CN(c2cc(F)c3nc(-c4cc(F)c5nn(C)cc5c4)ccc3c2)CCN1 (single isomer, unassigned) [Compound 789] | – | > 7.00 | – | 6.00 to 7.00 | 6.00 to 7.00 | > 7.00 | > 7.00 | 6.00 to 7.00 | – | – | < 100 nM | 100 to 1000 nM | B (B represents 100-1000 nM)
Cc1nc2c(F)c(O)c(-c3ccc4nc(N5CCC(NCC6CC6)C5)ccc4n3)cc2o1 (stereo not drawn) [Cmpd 294] | > 7.00 | > 7.00 | > 7.00 | > 7.00 | > 7.00 | > 7.00 | – | – | < 100 nM | < 100 nM | – | – | –
Cc1nc2c(C)c(O)c(-c3ccc4nc(N5CC[C@@H](NC(C)C)C5)ncc4n3)cc2o1 [Cmpd 415] | > 7.00 | > 7.00 | > 7.00 | > 7.00 | > 7.00 | > 7.00 | – | – | < 100 nM | < 100 nM | – | – | –
CN(c1ccc2nc(-c3cc4cn(C)nc4cc3O)ccc2n1)C1CC(C)(C)N(C)C(C)(C)C1 [Compound 130] | < 5.00 | < 5.00 | < 5.00 | < 5.00 | < 5.00 | 6.00 to 7.00 | – | – | > 10000 nM | > 10000 nM | – | – | –
COc1cc2nc(C3CCNCC3)ccc2nc1-c1cc2c(C)nc(C)cn2n1 [Compound 343, 2-{4,6-dimethylpyrazolo[1,5-a]pyrazin-2-yl}-3-methoxy-6-(piperidin-4-yl)-1,5-naphthyridine] | 5.00 to 6.00 | 5.00 to 6.00 | 5.00 to 6.00 | 5.00 to 6.00 | < 5.00 | > 7.00 | – | – | 1000 to 10000 nM | 1000 to 10000 nM | – | – | –
Cc1cn2nc(-c3ncc4cc(N5CCNC6(CC6)C5)ccc4n3)cc(C)c2n1 [Compound 795, 2-(2,8-dimethylimidazo[1,2-b]pyridazin-6-yl)-6-(4,7-diazaspiro[2.5]octan-7-yl)quinazoline] | – | 5.00 to 6.00 | – | < 5.00 | < 5.00 | – | 5.00 to 6.00 | < 5.00 | – | – | 1000 to 10000 nM | > 10000 nM | C (C represents 1000-9999 nM)
Cn1cc2cc(-c3ncc4cc(N5CCC(N6CCC6)CC5)ccc4n3)c(O)cc2n1 [Compound 801, 5-{6-[4-(azetidin-1-yl)piperidin-1-yl]quinazolin-2-yl}-2-methylindazol-6-ol] | – | 6.00 to 7.00 | – | 5.00 to 6.00 | 5.00 to 6.00 | – | 6.00 to 7.00 | 5.00 to 6.00 | – | – | 1000 to 10000 nM | 1000 to 10000 nM | B (B represents 100-1000 nM)
C[C@H]1CN(c2ccc3nc(-c4cc(F)c5nn(C)cc5c4)ncc3c2)C[C@H](C)N1 [Compound 802, 6-[(3S,5S)-3,5-dimethylpiperazin-1-yl]-2-(7-fluoro-2-methylindazol-5-yl)quinazoline] | – | 6.00 to 7.00 | – | 6.00 to 7.00 | 6.00 to 7.00 | – | 6.00 to 7.00 | 6.00 to 7.00 | – | – | 100 to 1000 nM | 100 to 1000 nM | B (B represents 100-1000 nM)
Cc1cn2nc(-c3ccc4cc(N5CCNC6(CC6)C5)cc(F)c4n3)cc(C)c2n1 [Compound 804, 6-{4,7-diazaspiro[2.5]octan-7-yl}-2-{2,8-dimethylimidazo[1,2-b]pyridazin-6-yl}-8-fluoroquinoline] | – | 6.00 to 7.00 | – | 6.00 to 7.00 | 6.00 to 7.00 | – | 6.00 to 7.00 | 6.00 to 7.00 | – | – | 100 to 1000 nM | 100 to 1000 nM | B (B represents 100-1000 nM)
